We go through twelve compounds from PubChem BioAssay (NCI).

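Cultured in 96-well plates, cells were exposed to test compound for 48 hours across five concentrations. GI50: concentration for 50% inhibition of growth. Definition used: TGI = concentration required for complete inhibition of growth.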 Where a SMILES comes first, the peptide text is derived from it. [ ]: non-standard residue; d: D form. A value given as a limit tells only on which side of the number the result lay.

Test systems include KM12 colon; LOX IMVI melanoma; MALME-3M melanoma; NCI-H460 lung; NCI/ADR-RES ovarian; SK-MEL-28 melanoma; SK-OV-3 ovarian; UACC-257 melanoma; UO-31 renal; SR leukemia.
Holding throughout (assay): NCI anticancer screen, dose series, 48 h

As for `C=C(CN1CCN(c2ccc(F)c(Cl)c2)CC1)c1ccc(C(=O)Nc2ccccc2N)cc1`, the GI50 with KM12 colon is 4.07 µM; in the assay on LOX IMVI melanoma, 3.47 µM; in the assay with MALME-3M melanoma, 4.35 µM; in the assay on NCI-H460 lung it was 5.08 µM; in the assay on NCI/ADR-RES ovarian it was 2.01 µM; with SK-MEL-28 melanoma it was 0.529 µM. The GI50 in the assay on SK-OV-3 ovarian is > 100 µM; in the assay with UACC-257 melanoma, 13.9 µM; in the assay on UO-31 renal, 2.28 µM. Moreover, the TGI is > 100 µM with KM12 colon; 12.5 µM in the assay on LOX IMVI melanoma; 37.2 µM in the assay on MALME-3M melanoma; > 100 µM in the assay on NCI-H460 lung; 5.09 µM in the assay on NCI/ADR-RES ovarian; > 100 µM in the assay with SK-MEL-28 melanoma. The TGI was > 100 µM in the assay on SK-OV-3 ovarian, 47.3 µM in the assay on UACC-257 melanoma and 12.1 µM with UO-31 renal.
Regarding `N#CNC1=NCCC(=O)N1CCc1c[nH]c2ccccc12`, the TGI in the assay with KM12 colon, in the assay on LOX IMVI melanoma, in the assay with SK-MEL-28 melanoma, in the assay with SK-OV-3 ovarian, in the assay on SR leukemia and in the assay on UACC-257 melanoma was > 100 µM each time. For the same compound, the TGI in the assay on UO-31 renal was > 100 µM.
`CC1=C(SCCC(=O)OC(C[Se]C2=C(C)C(=O)c3ccccc3C2=O)C(=O)NC(C)(C)C)C(=O)c2ccccc2C1=O` (stereo unspecified): the GI50 with KM12 colon is 0.86 µM; in the assay on LOX IMVI melanoma it was 1.4 µM; with MALME-3M melanoma, 2.01 µM; with NCI-H460 lung, 0.44 µM; in the assay on NCI/ADR-RES ovarian, 0.701 µM; in the assay with SK-MEL-28 melanoma, 1.78 µM. The GI50 with SK-OV-3 ovarian is 1.43 µM; in the assay with UACC-257 melanoma, 1.76 µM; in the assay on UO-31 renal, 0.68 µM. Also, the TGI was found to be 2.18 µM in the assay on KM12 colon; 2.9 µM in the assay on LOX IMVI melanoma; 3.89 µM in the assay with MALME-3M melanoma; 2.06 µM in the assay on NCI-H460 lung; 1.98 µM in the assay with NCI/ADR-RES ovarian; 3.16 µM in the assay on SK-MEL-28 melanoma. Also, the TGI amounted to 2.74 µM with SK-OV-3 ovarian, 3.2 µM in the assay on UACC-257 melanoma and 2.15 µM in the assay on UO-31 renal.
Regarding `Cn1cc(-c2csc(-c3cn(C(=O)OC(C)(C)C)c4ccccc34)n2)c2cccnc21`, the GI50 was 2.78 µM with KM12 colon; 3.53 µM with LOX IMVI melanoma; 14.6 µM in the assay on MALME-3M melanoma; 3.92 µM in the assay on NCI-H460 lung; 2.33 µM in the assay on NCI/ADR-RES ovarian; 10.2 µM in the assay on SK-MEL-28 melanoma. The GI50 was 10.1 µM in the assay with SK-OV-3 ovarian, 8.97 µM in the assay with UACC-257 melanoma and 3.46 µM in the assay on UO-31 renal. The TGI came to 9.57 µM in the assay with KM12 colon; 18.6 µM in the assay on LOX IMVI melanoma; 40.8 µM in the assay with MALME-3M melanoma; 17.7 µM with NCI-H460 lung; 14.4 µM in the assay with NCI/ADR-RES ovarian; 33.3 µM in the assay on SK-MEL-28 melanoma. Further, the TGI is 48.2 µM with SK-OV-3 ovarian, 23.6 µM in the assay on UACC-257 melanoma and 21.3 µM in the assay on UO-31 renal.
Regarding `CCOC(=O)C(=O)Nc1nc2ccc(C)cc2s1`, the TGI with KM12 colon, in the assay with MALME-3M melanoma, with NCI-H460 lung, with SK-MEL-28 melanoma, in the assay with SK-OV-3 ovarian and in the assay on SR leukemia was > 100 µM in each case. Moreover, the TGI in the assay with UACC-257 melanoma and with UO-31 renal was > 100 µM in each case.
Take `CSCC[C@H](NC(=O)[C@@H](N)CC(N)=O)C(=O)N[C@@H](Cc1c[nH]c2ccccc12)C(=O)N[C@@H](CCC(N)=O)C(=O)N[C@@H](CCC(=O)O)C(=O)N[C@H](C(=O)NCC(=O)N[C@@H](CCCCN)C(=O)N[C@H](C)C(=O)O)C(C)C` (H-NMWQEVGK[dA]-OH): the TGI in the assay with KM12 colon, in the assay with LOX IMVI melanoma, with MALME-3M melanoma, with NCI-H460 lung, with NCI/ADR-RES ovarian and with SK-MEL-28 melanoma was > 100 µM each time. The TGI in the assay on SK-OV-3 ovarian and in the assay with UACC-257 melanoma was > 100 µM throughout.
Regarding `Cc1nc(-n2nc(-c3ccccc3)cc2-c2ccccc2)sc1C(=O)CC(=O)C(=O)Nc1ccc(O)cc1`, the TGI in the assay on KM12 colon, in the assay on LOX IMVI melanoma, in the assay on MALME-3M melanoma, in the assay on SK-OV-3 ovarian, with SR leukemia and with UACC-257 melanoma was > 100 µM throughout. In the assay with UO-31 renal, the TGI is > 100 µM.
`C=C1C(=O)OC2(C)CCC1CC1OC1(C)CCC=C(C)CCC2O` (stereo unspecified): the TGI in the assay on KM12 colon, with LOX IMVI melanoma, in the assay on MALME-3M melanoma, in the assay with NCI-H460 lung, in the assay with NCI/ADR-RES ovarian and in the assay with SK-MEL-28 melanoma was > 100 µM throughout. Further, the TGI in the assay with SK-OV-3 ovarian, in the assay on UACC-257 melanoma and in the assay with UO-31 renal was > 100 µM throughout.
With `COc1ccc(/C=C2/CSC/C(=C/c3ccc(OC)c(OC)c3)C2=O)cc1OC`, the TGI turned out to be 3.26 µM with KM12 colon; 2.62 µM in the assay on LOX IMVI melanoma; 12.2 µM in the assay with MALME-3M melanoma; 7.09 µM in the assay on NCI-H460 lung; 9.76 µM in the assay with SK-MEL-28 melanoma; 42.6 µM with SK-OV-3 ovarian. Also, the TGI turned out to be 16.9 µM in the assay with UACC-257 melanoma and 10.6 µM in the assay with UO-31 renal.
Regarding `CNc1nc(-c2ccc3c(N)n[nH]c3c2)cc(N2C[C@@H](C(=O)NC3CCCCC3)CC[C@H]2C)n1`, the GI50 in the assay on KM12 colon was 8.37 µM; with LOX IMVI melanoma, 3.8 µM; with MALME-3M melanoma it was 0.302 µM; with NCI-H460 lung it was 1.5 µM; with NCI/ADR-RES ovarian it was 13.3 µM; in the assay with SK-MEL-28 melanoma, 1.68 µM. In addition, the GI50 with SK-OV-3 ovarian is 0.495 µM; with UACC-257 melanoma, 1.3 µM; with UO-31 renal, 0.854 µM. In addition, the TGI with KM12 colon amounted to 22.4 µM; in the assay with LOX IMVI melanoma, 19.4 µM; in the assay on MALME-3M melanoma, 10.7 µM; in the assay on NCI-H460 lung, 15.7 µM; in the assay with NCI/ADR-RES ovarian, 41.3 µM; in the assay on SK-MEL-28 melanoma it was 15.8 µM. Moreover, the TGI worked out at 9.97 µM with SK-OV-3 ovarian, 16.8 µM in the assay on UACC-257 melanoma and 13.7 µM in the assay on UO-31 renal.
Take `N/C(CC(=O)NOC(=O)c1ccccc1)=N/OC(=O)c1ccccc1`: the TGI in the assay with KM12 colon is > 100 µM; in the assay on LOX IMVI melanoma, 38.5 µM; with MALME-3M melanoma, > 100 µM; with NCI-H460 lung, > 100 µM; with NCI/ADR-RES ovarian it was > 100 µM; in the assay with SK-MEL-28 melanoma, 99.4 µM. Besides, the TGI in the assay with SK-OV-3 ovarian was 97.3 µM; in the assay on UACC-257 melanoma, > 100 µM; in the assay with UO-31 renal, 53.9 µM.
For the compound `CC/C(C)=C1\CCC(CN(C)C)C1=O` (stereo unspecified), the TGI was determined as 28.4 µM in the assay with KM12 colon; 40.7 µM in the assay on LOX IMVI melanoma; 39.1 µM with MALME-3M melanoma; 33.4 µM in the assay with NCI-H460 lung; 38.6 µM in the assay with SK-MEL-28 melanoma; 43.2 µM in the assay on SR leukemia. The values for the TGI in the assay with UACC-257 melanoma and in the assay with UO-31 renal were 31.4 µM and 35.4 µM, respectively.
